# Laboratory results taken from US7217688B2, “Methods and compositions for derepression of IAP-inhibited caspase” (The Burnham Institute, priority 2005, dated 2007).
# Square brackets hold non-standard residues; d marks the D form. Side chains are listed from the residue outwards. Peptide text beside a SMILES is read from it. * marks the point of attachment. X1 = CCN(CC)c1ccc2c(-c3ccc(S(=O)(=O)*)cc3S(=O)(=O)O)c3ccc(=[N+](CC)CC)cc-3oc2c1; d2Nal = N[C@H](Cc1ccc2ccccc2c1)C(=O)O; Ahx = NCCCCCC(=O)O
# Experiments:
# [1] = biological target: T1, XIAP-inhibited caspase-3 (Homo sapiens, UniProt P98170); test: caspase derepression assay (XIAP-inhibited caspase-3, Ac-DEVD-AFC hydrolysis); type: biochemical; conditions: for activity in the derepression assay using full length XIAP: active / inactive
# T1 construct: in the derepression assay using full length XIAP; made in house; host or cells: bacteria
# Protocol: (§1) Caspase activity was assayed by release of 7-amino-4-trifluoromethyl-coumarin (AFC) from Ac-DEVD-AFC synthetic peptide using a Molecular Devices Spectromax 340 (see Zhou et al., J. Biol. Chem. 272:7797–7800 (1997)). […] The ratio of Vmax for hydrolysis of Ac-DEVD-AFC in the presence and absence of the candidate mixture was calculated and used to identify those that contain an agent that derepresses an IAP-inhibited caspase.
# (§2) Screening of each mixture from the DCR390, TPI 1239 or TPI 1328 library, respectively, using the above described assay was carried out as follows. Each mixture was aliquoted in a 25 microliter volume and in duplicate to a well of a 96 well microtiter plate. […] Fluorescence of liberated AFC was immediately detected from each well for 30 minutes at 30 second intervals. The Vmax for hydrolysis of AC-DEVD-AFC from each well was measured using the softmax software package. Results of the screen for the DCR390 library are shown in Table I. Sets of mixtures having the same position fixed with different respective amino acids are arranged in 6 sections identified with the position number. […] The mixture in each section are arranged in descending order according to apparent velocity in the second column.
# Briefly, recombinant proteins were produced in bacteria and purified as described, for example, in Deveraux et al., Nature 388:300–304(1997). […] Generation of fluorogenic AFC (7-amino-4-trifluoromethyl coumarin) product was measured with a spectrofluorometric plate reader in kinetic mode for 30 minutes at 37° C. using excitation and emission wavelengths of 405 nm and 510 nm, respectively. […] Control reactions lacked XIAP, and all assays were conducted in the linear range of substrate hydrolysis to avoid substrate depletion artifacts.
# [2] = biological target: T2, caspase-3 (Homo sapiens, UniProt P42574); test: caspase-3 activity without XIAP (control arm of derepression assay); type: biochemical; conditions: TPI 1239 library; ratio, no XIAP
# T2 construct: made in house; host or cells: bacteria
# Protocol: as §1, §2
# [3] = system: Jurkat leukemia cells; test: Jurkat cell death (Annexin V / propidium iodide flow cytometry); type: cell-based
# Protocol: The following assay was used to test the ability of individual compounds from the TPI 1396 and TPI 1391 libraries to induce apoptosis of cultured tumor cell lines. Each of the compounds listed in Table IX was individually added to Jurkat leukemia cells (6.25×10^5 cells/mL) in RPMI containing 2.5% FBS at various concentrations for 20 hours. After incubation, cells were washed and stained with FITC-conjugated Annexin V antibody and propidium iodide (Biovision; Mountain View, Calif.). Cells were incubated for 20 minutes at room temperature in the dark and fluorescence was measured by flow cytometry (FACScan, Immunocytometry system; Becton-Dickinson; San Jose, Calif.). Cells staining positive for Annexin V were deemed non-viable.
# [4] = system: NCI panel of 60 tumor cell lines; test: NCI panel of 60 tumor cell lines, protein-based colorimetric assay; parameters: species or system human; conditions: 48 hours
# Protocol: Selected polyphenylurea compounds were tested on the National Cancer Institute (NCI) panel of 60 tumor cell lines (see FIG. 28a and FIG. 29).
# [5] = mouse, in vivo
# Protocol: Selected polyphenylurea compounds were tested for anti-tumor activity in vivo, using human tumor xenografts grown in immunocompromised mice. First, it was determined what doses of polyphenylurea compounds were tolerated by mice. […] For tumor xenograft studies, PPC1 prostate cancer cells (2.5 million) were injected subcutaneously into the flanks of 8 male Balb/C nu−/nu− mice. […] Tumor growth was monitored at least twice weekly by external calipers (see FIG. 32b). At 24 days after compound injections, mice were sacrificed and tumors were excised and weighed (see FIG. 32b, inset).
# Sera were assayed for BUN, bilirubin, ALT and AST.
# [6] = system: tumor tissue; test: in vivo caspase activation in tumors (immunoblot, immunohistochemistry); parameters: species or system Balb/c mice; conditions: 30 mg/kg i.p. for 3 successive days
# [7] = stability in human serum; type: in vitro ADME; conditions: expected
# [8] = system: Jurkat cells; test: caspase-3 and caspase-7 activity in whole Jurkat cells; type: cell-based; conditions: 8 μM, 20 hours
# [9] = system: normal bone marrow mononuclear cells; test: normal bone marrow cell toxicity (Annexin V); type: cell-based; conditions: 5 μM, 20 hours
# Protocol: After incubation, cells were washed, stained with FITC-conjugated Annexin V antibody and propidium iodide, and fluorescence measured by flow cytometry as described above.
# [10] = system: U937 leukemia cells over-expressing XIAP; test: U937-Neo versus U937-XIAP cell death (Annexin V); type: cell-based; conditions: 5 or 8 μM, 20 hours
# Protocol: After incubation, cells were washed, stained with FITC-conjugated Annexin V antibody and propidium iodide, and fluorescence measured by flow cytometry as described in Example XI.
# Equal amounts of protein were subjected to SDS-PAGE (4–20% gradient gels from ISC BioExpress, Kaysville, Utah.), followed by transfer to nitrocellulose membranes. […] Secondary antibodies consisted of horseradish peroxidase (HRP)-conjugated goat anti-mouse IgG (Bio-Rad, Hercules, Calif.). Detection was performed by the enhanced chemiluminescence (ECL) method. […] Lysates were prepared from the cells, normalized for total protein content and analyzed by SDS-PAGE immunoblotting using antibodies specific for XIAP, caspase-3, and β-actin.
# [11] = system: HeLa cells; test: apoptosis of transfected HeLa cells (Annexin V); type: cell-based; conditions: 5 μM, 20 hours
# Protocol: In addition to transfecting the cells with full-length XIAP, analogous assays were performed with HeLa cells transfected with plasmids over-expressing various XIAP mutants. […] The mutant was produced by site-directed mutagenesis to modify positions 148, 219, 223, 314 and 323 to contain alanine. HeLa cells were also transiently transfected with plasmids encoding Bcl-XL, an anti-apoptotic protein that operates upstream of caspases to suppress Cytochrome C release from mitochondria. HeLa cells (2.5×10^5) were seeded onto six well plates in 2 mL DMEM H21 with 5% FBS. After 24 hrs, cells were transfected (Gene Porter) with plasmids. […] Both floating and adherent cells were then recovered from cultures, washed, and apoptosis was determined by Annexin V staining using flow cytometry.
# Bcl-XL over-expression did afford resistance to traditional anticancer drugs such as etoposide and CrmA (a caspase-8 inhibitor), and protected cells from apoptosis induced by TRAIL, confirming that these anti-apoptotic proteins were functional in these experiments.
# [12] = system: mouse embryo fibroblasts (MEFs), human prostate epithelial cells, peripheral blood lymphocytes (PBLs); test: normal cell viability (annexin-V, 2 days); type: cell-based; parameters: dose or concentration left out as unconfirmed
# Protocol: After 2 days, cell viability was assessed by annexin-V staining.
# [13] = system: Du145 prostate cancer cells; test: sensitization to anticancer drugs (MTT assay); type: cell-based; conditions: 10 μM, 48 hours
# Protocol: The percentage of viable cells relative to control was determined using a MTT (3-(4,5-dimethylthiazolyl-2)-2,5-diphenyltetrazolium bromide) assay which is commercially available (Sigma). […] Similar results were obtained for PPC1 (FIG. 31b) and PC3 (FIG. 31c) prostate cancer cells treated with VP16, DOX, or TAXOL, and for H460 (FIG. 31d) lung cancer cells treated with VP16 or DOX.
# [14] = system: PPC1, ALVA31, DU145 and HeLa cells; test: sensitization to TRAIL-induced apoptosis; type: cell-based; conditions: 1 µM
# Protocol: Similar tests of the effects of polyphenyl urea compounds on apoptosis induction by the biological agent TRAIL, an apoptosis inducing member of the Tumor Necrosis Factor (TNF) family were also performed.
# [15] = system: PC-3 and LNCaP prostate cancer cell lines; test: clonogenic survival (colony formation) assay; type: cell-based; conditions: 10 μM
# Protocol: In addition to short-term cytotoxicity assays, selected polyphenylurea compounds were tested for effects on clonogenic survival of cancer cells in colony formation assays, which can be considered a more stringent test of anticancer activity.
# [16] = system: PPC1 prostate cancer cells; test: PPC1 tumor xenograft; type: in vivo, Balb/C nu-/nu- mice; conditions: 30 mg/kg i.p. for 2 or 3 days
# Source text: Similar data was obtained using TPI 1396-22 (see FIG. 33a and 33b). […] In FIG. 33b, the mice were sacrificed at day 19 and the tumors excised and weighed.
# [17] = system: HCT-116 colon cancer cells; test: HCT-116 tumor xenograft; type: in vivo, Balb/C nu-/nu- mice; conditions: 30 mg/kg i.p. on days 6, 7 and 8
# Protocol: Additional experiments were performed using a different tumor xenograft model. HCT-116 colon cancer cells (2.5 million) were injected subcutaneously in the flanks of female Balb/C nu−/nu− mice. […] Tumor volume was measured by external calipers at least twice weekly for 19 days (see FIG. 32c). On day 19, the mice were sacrificed and the tumors were excised and weighed.
# [18] = biological target: XIAP binding to the SMAC peptide (Homo sapiens, UniProt P98170); test: SMAC competition / SMAC binding assay (biotinylated SMAC 7-mer, GST-XIAP)
# Protocol: Peptide compounds containing unnatural amino acids in the 792 series, 792-33 and 792-35 (see FIG. 12 and 20 and Example XI), and an active compound in the TPI 1332 series, TPI 1332-69, were tested for binding activity in the SMAC binding assay as described above in Example X. For this assay, biotinylated SMAC 7-mer peptide (50 ng) was bound to 96 well plates coated with NeutrAvidin (Pierce, Rockford, Ill.) at 1 mg/ml in 100 μl per well of 50 mM HEPES pH 7.4, 100 mM NaCl, 1 mM EDTA, 10% sucrose, 0.1% CHAPS, 10 mM DTT.
# [19] = system: tumor cells with antigen-specific T cells; test: CTL-mediated lysis (51Cr release); type: cell-based; conditions: 10 μM, 4 hours
# Protocol: After 4 hours, ^51Cr release was measured. Data shown in FIG. 39 are expressed as a percentage of total release induced by detergent lysis, and data represent mean±standard deviation of duplicate determinations.
# [20] = biological target: His-BIR2 of XIAP; test: rhodamine fluorescence polarization competitive binding assay; conditions: titrated with TPI 1396-11; labeled compound 2.4 μM, His-BIR2 79 μM; read-out: IC50 of the labeled candidate compound
# Protocol: In a second assay, competitive binding of candidate derepressors of IAP inhibited caspase was measured by a fluorescence polarization procedure. Fixed quantities of rhodamine-labeled candidate compound and IAP fragment were titrated against varying concentrations of a known IAP-binding compound. […] Polarization (millipolars or mP) was plotted against log concentration (log []) of the known IAP-binding compound. A plot of mP versus log concentration of the IAP-binding compound was then used to calculate the binding constant for the candidate compound-the IAP fragment pair.
# Plates were incubated for one hour at room temperature, after which polarization of rhodamine was read in an LJL Analyst HT® multimode reader with excitation at 530 nm and emission at 580 nm.
# T1 sequence (P98170 whole entry): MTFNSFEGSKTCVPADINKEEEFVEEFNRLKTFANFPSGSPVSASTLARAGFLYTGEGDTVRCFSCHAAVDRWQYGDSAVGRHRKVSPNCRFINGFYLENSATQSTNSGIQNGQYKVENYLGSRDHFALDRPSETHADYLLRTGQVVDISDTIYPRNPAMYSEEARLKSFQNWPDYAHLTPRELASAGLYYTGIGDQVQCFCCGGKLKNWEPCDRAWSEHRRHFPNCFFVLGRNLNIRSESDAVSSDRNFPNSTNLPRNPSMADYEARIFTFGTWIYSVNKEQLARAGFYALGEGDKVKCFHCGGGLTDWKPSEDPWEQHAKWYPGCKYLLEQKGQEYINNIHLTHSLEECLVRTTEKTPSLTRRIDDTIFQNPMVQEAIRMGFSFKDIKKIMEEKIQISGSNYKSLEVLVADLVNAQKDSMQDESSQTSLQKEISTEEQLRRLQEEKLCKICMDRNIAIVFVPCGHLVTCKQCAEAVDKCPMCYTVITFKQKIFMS
# T2 sequence (P42574 29-175 limits assumed): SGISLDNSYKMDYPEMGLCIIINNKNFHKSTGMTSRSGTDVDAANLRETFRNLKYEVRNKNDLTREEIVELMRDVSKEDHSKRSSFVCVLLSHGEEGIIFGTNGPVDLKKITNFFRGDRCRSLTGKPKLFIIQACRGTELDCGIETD
# T2 sequence (P42574 176-277 limits assumed): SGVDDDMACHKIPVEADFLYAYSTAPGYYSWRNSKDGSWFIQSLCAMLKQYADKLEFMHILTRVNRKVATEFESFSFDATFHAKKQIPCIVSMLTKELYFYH
# Chain of XIAP binding to the SMAC peptide (P98170 whole entry): as the sequence (P98170 whole entry) above
smiles,measurement,setting,value
"CC[C@H](C)[C@H](NC(=O)[C@@H]1CCCN1C(=O)[C@@H](NC(=O)[C@H](C)N)C(C)C)C(=O)N[C@@H](C)C(=O)N[C@@H](CCC(N)=O)C(=O)N[C@@H](CCCCN)C(N)=O [SMAC, H-Ala-Val-Pro-Ile-Ala-Gln-Lys-NH2, reference compound] (H-AVPIAQK-NH2)",Vmax(mis + casp3 + XIAP) Vmax(casp3 + XIAP),"[1]; TPI 1239 library, ratio in the presence of XIAP",3.8 ± 1.7
same,Vmax(mix + casp3) Vmax(casp3),[2],0.8 ± 0.0
CN(CCCCC(CNC(=O)Nc1ccccc1)N(CC1CCCN1CCCCC1CCCCC1)C(=O)Nc1ccccc1)C(=O)Nc1ccccc1 (stereo not shown) [TPI 1396-12],"Activity (relative caspase-3 activity, ratio of Vmax with compound to Vmax of caspase-3 and XIAP controls)","[1]; Table X, R2 = L-Proline",2.7
same,activity in the derepression assay using full length XIAP,[1],active
same,% nonviable cells,[3]; 1 µM,15%
same,% nonviable cells,[3]; 5 µM,95%
same,% nonviable cells,[3]; 10 μM,89%
same,% nonviable cells,[3]; 25 µM,89%
same,% nonviable cells,[3]; 50 µM,85%
same,average LD50 for the 60 cell lines,[4],7.6 ± 12 µM
same,median LD50 for the 60 cell lines,[4],6 µM
same,maximum tolerated dose,[5],200 to 400 mg/kg
same,caspase activation in tumors in vivo,[6],induce caspase activation in tumors in vivo
same,tumor proliferation (surrogate marker PCNA),[6],no effect on tumor proliferation
same,stable in human serum,[7],greater than 48 hours
COc1ccc(CCN2CCC[C@@H]2CN(C(=O)Nc2ccccc2)[C@@H](CNC(=O)Nc2ccccc2)CC2CCCCC2)cc1 [TPI 1396-34],activity in the derepression assay using full length XIAP,[1],active
same,time to half-maximal killing,[3]; 10 μM,approximately 12 hours
same,time to maximum killing,[3]; 10 μM,about 24 hours
same,apoptosis with 100 μM zVAD-fmk,[3]; 20 hours,suppressible
same,caspase activation,[8],induced caspase activation
same,toxicity to normal bone marrow cells,[9],little toxicity
same,effect of XIAP over-expression on apoptosis induction,[10],over-expression of XIAP rendered U937 cells resistant
same,apoptosis in HeLa cells over-expressing Bcl-XL,[11],not blocked
same,apoptosis in HeLa cells over-expressing full-length XIAP,[11],protected
same,apoptosis in HeLa cells transfected with a control vector,[11],induced apoptosis
same,increase of percentage cell death above background,[12],less than one-fold
same,"effect on cytotoxicity of VP16, DOX and TAXOL",[13],significantly increased dose-dependent cytotoxicity
same,effect on TRAIL-induced apoptosis,[14],sensitized
same,colony formation,[15],< 5 % of control
same,tumor growth / tumor size,[16],reduced tumor size
same,tumor size,[17],tumor size was reduced
same,competition with XIAP binding to the SMAC peptide,[18],does not compete
same,effect on CTL-mediated lysis,[19],sensitizes tumor targets to CTL-mediated lysis
CCN(CC)c1ccc2c(-c3ccc(S(=O)(=O)NCCCCCC(=O)NCCCC[C@H](NC(=O)[C@@H](Cc4ccc5ccccc5c4)NC(=O)[C@H](Cc4c[nH]c5ccccc45)NC(=O)[C@H](Cc4c[nH]c5ccccc45)NC(=O)[C@H](C)N)C(N)=O)cc3S(=O)(=O)O)c3ccc(=[N+](CC)CC)cc-3oc2c1 [TPI 1566-11] (H-AWW[d2Nal]K([Ahx-X1])-NH2),IC50,[20],10 µM
